Results taken from ChEMBL document CHEMBL5370540, “Discovery of pyrimidine-5-carboxamide derivatives as novel salt-inducible kinases (SIKs) inhibitors for inflammatory bowel disease (IBD) treatment” (Eur J Med Chem, 2023).
pIC50: −log10 of the molar value. Blank lines part the entries; values can stand above or below the molecule they belong to. Calls of active or inactive are those of the source. The calls are words filed in the database; no cut-off is given here.

Columns and labels:
[1] = Metabolic stability in human liver microsomes assessed as half life; type: ADME, Microsome
[2] = target: T1, Serine/threonine-protein kinase SIK2 (Homo sapiens, UniProt Q9H0K1); assay: Inhibition of SIK2 (unknown origin) assessed as residual activity at 0.1 uM relative to control
Target sequence in this assay (Q9H0K1 whole entry, looked up): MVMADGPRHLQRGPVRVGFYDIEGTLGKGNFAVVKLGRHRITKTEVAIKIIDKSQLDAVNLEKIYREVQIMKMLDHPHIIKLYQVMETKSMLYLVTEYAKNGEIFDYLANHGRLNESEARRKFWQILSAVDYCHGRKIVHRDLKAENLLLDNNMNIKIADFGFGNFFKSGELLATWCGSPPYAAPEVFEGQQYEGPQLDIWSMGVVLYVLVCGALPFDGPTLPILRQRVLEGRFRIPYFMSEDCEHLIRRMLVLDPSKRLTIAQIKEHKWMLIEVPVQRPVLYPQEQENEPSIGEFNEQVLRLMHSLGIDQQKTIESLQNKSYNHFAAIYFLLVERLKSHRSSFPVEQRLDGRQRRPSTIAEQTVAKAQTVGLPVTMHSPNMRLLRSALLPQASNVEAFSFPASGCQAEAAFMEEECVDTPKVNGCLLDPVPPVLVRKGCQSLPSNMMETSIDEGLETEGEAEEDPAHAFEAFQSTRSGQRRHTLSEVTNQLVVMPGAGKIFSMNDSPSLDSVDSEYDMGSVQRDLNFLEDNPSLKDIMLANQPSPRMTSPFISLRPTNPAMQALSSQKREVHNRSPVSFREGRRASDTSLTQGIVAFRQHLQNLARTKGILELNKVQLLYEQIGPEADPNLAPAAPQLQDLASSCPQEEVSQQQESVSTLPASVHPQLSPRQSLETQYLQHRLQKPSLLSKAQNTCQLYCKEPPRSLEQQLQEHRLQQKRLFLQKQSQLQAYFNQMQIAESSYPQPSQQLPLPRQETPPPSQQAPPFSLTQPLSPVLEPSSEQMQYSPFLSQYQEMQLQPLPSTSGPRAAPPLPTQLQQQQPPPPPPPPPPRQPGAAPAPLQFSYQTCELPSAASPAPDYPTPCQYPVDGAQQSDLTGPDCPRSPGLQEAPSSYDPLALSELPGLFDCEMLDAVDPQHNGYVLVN

[3] = target: T2, Serine/threonine-protein kinase SIK3 (Homo sapiens, UniProt Q9Y2K2); assay: Inhibition of SIK3 (unknown origin) assessed as residual activity at 0.1 uM relative to control
Target sequence in this assay (Q9Y2K2 whole entry, looked up): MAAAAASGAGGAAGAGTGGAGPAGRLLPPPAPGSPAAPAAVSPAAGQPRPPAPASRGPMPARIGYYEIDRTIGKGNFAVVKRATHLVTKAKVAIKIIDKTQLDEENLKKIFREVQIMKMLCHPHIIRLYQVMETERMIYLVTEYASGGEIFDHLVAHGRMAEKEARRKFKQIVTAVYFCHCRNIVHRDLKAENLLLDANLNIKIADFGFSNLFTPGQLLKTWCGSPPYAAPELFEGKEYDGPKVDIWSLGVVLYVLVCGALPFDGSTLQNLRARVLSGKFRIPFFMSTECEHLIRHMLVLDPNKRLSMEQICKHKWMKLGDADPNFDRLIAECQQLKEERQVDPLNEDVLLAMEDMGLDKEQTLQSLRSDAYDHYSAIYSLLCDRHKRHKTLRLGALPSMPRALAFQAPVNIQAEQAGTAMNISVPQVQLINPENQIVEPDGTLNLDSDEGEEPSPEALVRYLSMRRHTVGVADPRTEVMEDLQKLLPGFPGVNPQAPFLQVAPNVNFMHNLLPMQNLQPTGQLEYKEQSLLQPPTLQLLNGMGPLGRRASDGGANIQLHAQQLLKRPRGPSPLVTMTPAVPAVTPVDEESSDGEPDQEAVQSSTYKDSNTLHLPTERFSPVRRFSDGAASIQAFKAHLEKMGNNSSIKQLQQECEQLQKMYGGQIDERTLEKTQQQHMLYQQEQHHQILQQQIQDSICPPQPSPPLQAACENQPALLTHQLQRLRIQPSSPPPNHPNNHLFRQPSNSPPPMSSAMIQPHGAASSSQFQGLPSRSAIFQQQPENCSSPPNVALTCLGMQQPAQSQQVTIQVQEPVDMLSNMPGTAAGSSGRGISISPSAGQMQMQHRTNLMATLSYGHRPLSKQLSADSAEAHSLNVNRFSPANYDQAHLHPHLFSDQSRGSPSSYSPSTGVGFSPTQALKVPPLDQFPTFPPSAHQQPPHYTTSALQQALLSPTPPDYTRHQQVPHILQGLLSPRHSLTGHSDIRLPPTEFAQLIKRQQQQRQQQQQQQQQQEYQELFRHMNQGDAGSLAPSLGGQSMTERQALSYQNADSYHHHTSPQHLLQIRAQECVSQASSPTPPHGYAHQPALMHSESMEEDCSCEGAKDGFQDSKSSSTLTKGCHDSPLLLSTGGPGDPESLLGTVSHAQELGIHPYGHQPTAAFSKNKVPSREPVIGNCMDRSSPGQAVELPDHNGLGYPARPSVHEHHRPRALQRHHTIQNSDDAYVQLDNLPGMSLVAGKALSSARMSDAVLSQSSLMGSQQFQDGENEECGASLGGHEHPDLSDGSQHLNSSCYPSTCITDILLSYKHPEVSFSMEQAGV

[4] = Metabolic stability in mouse liver microsomes assessed as half life; type: ADME, Microsome
[5] = Protein binding in mouse plasma; type: ADME, cell-free; conditions: read-out: PPB
[6] = Clearance in Sprague-Dawley rat at 5 mg/kg, po measured upto 24 hrs by LC/MS/MS analysis; type: ADME, organism-based; conditions: in vivo
[7] = Protein binding in human plasma at 10 uM measured for 8 hrs by dialysis method; type: ADME, cell-free; conditions: read-out: PPB (converted)
[8] = Cmax in Sprague-Dawley rat at 5 mg/kg, iv measured upto 24 hrs by LC/MS/MS analysis; type: ADME, organism-based; parameters: dose 5 mg/kg, time < 24 hrs, route iv; conditions: in vivo
[9] = Half life in Sprague-Dawley rat at 5 mg/kg, iv measured upto 24 hrs by LC/MS/MS analysis; type: ADME, organism-based; conditions: in vivo
[10] = Tmax in Sprague-Dawley rat at 5 mg/kg, iv measured upto 24 hrs by LC/MS/MS analysis; type: ADME, organism-based; conditions: in vivo
[11] = Half life in Sprague-Dawley rat at 5 mg/kg, po measured upto 24 hrs by LC/MS/MS analysis; type: ADME, organism-based; conditions: in vivo
[12] = AUC (0 to t) in Sprague-Dawley rat at 5 mg/kg, po measured upto 24 hrs by LC/MS/MS analysis; type: ADME, organism-based; parameters: time < 24 hrs, dose 5 mg/kg, route po; conditions: in vivo
[13] = Clearance in Sprague-Dawley rat at 5 mg/kg, iv measured upto 24 hrs by LC/MS/MS analysis; type: ADME, organism-based; conditions: in vivo
[14] = Oral bioavailability in Sprague-Dawley rat at 5 mg/kg measured upto 24 hrs by LC/MS/MS analysis; type: ADME, organism-based; conditions: in vivo
[15] = system: BMDM; assay: Cytotoxicity against C57BL/6J mouse BMDM cells assessed as cell viability upto 500 nM preincubated for 1 hr followed by LPS stimulation measured after 2 to 4 hrs by CCK8 assay; type: toxicity, cell-based; conditions: 0.5 µM, time 3-5 hrs
[16] = system: BMDM; assay: Anti-inflammatory activity against C57BL/6J mouse BMDM cells assessed as decrease in IL-12 level upto 500 nM preincubated for 1 hr followed by LPS stimulation measured after 8 hrs by ELISA method; type: functional, cell-based; conditions: time 9.0 hrs
[17] = Cmax in Sprague-Dawley rat at 5 mg/kg, po measured upto 24 hrs by LC/MS/MS analysis; type: ADME, organism-based; parameters: time < 24 hrs, dose 5 mg/kg, route po; conditions: in vivo
[18] = system: BMDM; assay: Anti-inflammatory activity against C57BL/6J mouse BMDM cells assessed as increase in IL-10 level at 500 nM preincubated for 1 hr followed by LPS stimulation measured after 2 to 8 hrs by ELISA method; type: functional, cell-based; conditions: time 3-9 hrs
[19] = system: BMDM; assay: Anti-inflammatory activity against C57BL/6J mouse BMDM cells assessed as decrease in IL-12 level at 500 nM preincubated for 1 hr followed by LPS stimulation measured after 8 hrs by ELISA method; type: functional, cell-based; conditions: time 9.0 hrs
[20] = Tmax in Sprague-Dawley rat at 5 mg/kg, po measured upto 24 hrs by LC/MS/MS analysis; type: ADME, organism-based; conditions: in vivo
[21] = AUC (0 to t) in Sprague-Dawley rat at 5 mg/kg, iv measured upto 24 hrs by LC/MS/MS analysis; type: ADME, organism-based; parameters: time < 24 hrs, dose 5 mg/kg, route iv; conditions: in vivo
[22] = system: BMDM; assay: Anti-inflammatory activity against C57BL/6J mouse BMDM cells assessed as decrease in IL-12 level at 500 nM preincubated for 1 hr followed by LPS stimulation measured after 4 to 8 hrs by ELISA method; type: functional, cell-based; conditions: time 5-9 hrs
[23] = target: T3, Serine/threonine-protein kinase SIK1 (Homo sapiens, UniProt P57059); assay: Inhibition of SIK1 (unknown origin) assessed as residual activity at 0.1 uM relative to control
T3 sequence (P57059 whole entry): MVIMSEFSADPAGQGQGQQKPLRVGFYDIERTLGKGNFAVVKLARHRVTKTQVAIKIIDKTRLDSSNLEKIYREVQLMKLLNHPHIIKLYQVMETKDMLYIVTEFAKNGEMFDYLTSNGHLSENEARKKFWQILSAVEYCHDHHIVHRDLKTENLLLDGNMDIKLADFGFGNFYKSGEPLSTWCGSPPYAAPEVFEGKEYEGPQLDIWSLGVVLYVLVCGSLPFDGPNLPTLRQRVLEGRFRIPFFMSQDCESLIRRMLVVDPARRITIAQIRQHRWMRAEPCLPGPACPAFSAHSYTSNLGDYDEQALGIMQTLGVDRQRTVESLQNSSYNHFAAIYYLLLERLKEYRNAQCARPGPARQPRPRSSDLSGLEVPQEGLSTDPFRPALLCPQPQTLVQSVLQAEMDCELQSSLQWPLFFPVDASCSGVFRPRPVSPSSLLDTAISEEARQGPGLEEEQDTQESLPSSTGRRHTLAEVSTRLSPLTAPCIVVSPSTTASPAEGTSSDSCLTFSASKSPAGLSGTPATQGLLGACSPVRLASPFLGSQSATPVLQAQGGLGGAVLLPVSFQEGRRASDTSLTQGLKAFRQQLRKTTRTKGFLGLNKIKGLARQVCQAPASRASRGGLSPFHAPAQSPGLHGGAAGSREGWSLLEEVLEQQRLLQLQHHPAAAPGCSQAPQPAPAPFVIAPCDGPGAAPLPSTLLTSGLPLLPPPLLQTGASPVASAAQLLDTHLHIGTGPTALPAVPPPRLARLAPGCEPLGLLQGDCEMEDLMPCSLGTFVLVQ

[24] = target: T3, Serine/threonine-protein kinase SIK1; assay: Inhibition of SIK1 (unknown origin)
[25] = Selectivity ratio of IC50 for SIK3 (unknown origin) to IC50 for SIK2 (unknown origin)
[26] = Selectivity ratio of IC50 for SIK1 (unknown origin) to IC50 for SIK2 (unknown origin)
[27] = target: T2, Serine/threonine-protein kinase SIK3; assay: Inhibition of SIK3 (unknown origin)
Target sequence in this assay (Q9Y2K2 whole entry): as the sequence (Q9Y2K2 whole entry, looked up) above

[28] = target: T1, Serine/threonine-protein kinase SIK2; assay: Inhibition of SIK2 (unknown origin)
Target sequence in this assay (Q9H0K1 whole entry): as the sequence (Q9H0K1 whole entry, looked up) above

half-life [1]: 32.4 min
SMILES: Cc1cccc(C)c1NC(=O)c1cnc(Nc2ccc(N3CCN(C)CC3)cc2)nc1NC1CCCC1

half-life [1]: 52.1 min
SMILES: COc1cc(Nc2ncc(C(=O)Nc3c(C)cccc3C)c(NC3CC3)n2)ccc1N1CCN(C)CC1

half-life [1]: 44.7 min
SMILES: Cc1cccc(C)c1NC(=O)c1cnc(Nc2ccc(N3CCN(C)CC3)cc2)nc1NC1CCC1

half-life [1]: > 120 min
SMILES: Cc1cccc(C)c1NC(=O)c1cnc(Nc2ccc(N3CCN(C)CC3)cc2F)nc1NC1CCC1

half-life [1]: 60.3 min
SMILES: Cc1cccc(C)c1NC(=O)c1cnc(Nc2ccc(N3CCN(C)CC3)c(F)c2)nc1NC1CC1

half-life [1]: 48.6 min
SMILES: COc1cc(Nc2ncc(C(=O)Nc3c(C)cccc3C)c(NC3CCC3)n2)ccc1N1CCN(C)CC1

half-life [1]: 44.1 min
SMILES: COc1cc(N2CCN(C)CC2)ccc1Nc1ncc(C(=O)Nc2c(C)cccc2C)c(NC2CCC2)n1

half-life [1]: 40.8 min
SMILES: Cc1cccc(C)c1NC(=O)c1cnc(Nc2ccc(N3CCN(C)CC3)cc2)nc1NC1CC1

half-life [1]: 37.3 min
SMILES: Cc1cccc(C)c1NC(=O)c1cnc(Nc2ccc(N3CCN(C)CC3)cc2)nc1NC1CCCCC1

CL/F [6]: 315 mL/min/kg
Cmax [8]: 1540 ng/mL
half-life [1]: 73.7 min
half-life [9]: 366 min
pIC50 [24]: 7.80
Ratio IC50 [25]: 8.5
Tmax [10]: 6 min
half-life [11]: 234 min
Ratio IC50 [26]: 2.7
AUC(0-t) at 24 h [12]: 432 ng·h/mL
clearance [13]: 51.7 mL/min/kg
pIC50 [27]: 7.29
bioavailability [14]: 23.4%
pIC50 [28]: 8.22
Cmax [17]: 52.2 ng/mL
Tmax [20]: 222 min
AUC(0-t) at 24 h [21]: 1850 ng·h/mL
SMILES: Cc1cccc(F)c1NC(=O)c1cnc(Nc2ccc(N3CCN(C)CC3)c(F)c2)nc1NC1CC1

half-life [1]: 69.3 min
Activity [2]: 1%
Activity [3]: 9%
SMILES: Cc1cccc(F)c1NC(=O)c1cnc(Nc2ccc(N3CCN(C)CC3)cc2)nc1NC1CCC1

half-life [1]: 62.4 min
SMILES: Cc1cccc(C)c1NC(=O)c1cnc(Nc2ccc(N3CCN(C)CC3)c(F)c2)nc1NC1CCC1

half-life [1]: 43.3 min
Activity [2]: 20%
Activity [3]: 68%
Activity [23]: 31%
SMILES: Cc1cccc(Cl)c1NC(=O)c1cnc(Nc2ccc(N3CCN(C)CC3)cc2)nc1NC1CCC1

half-life [1]: 56.6 min
SMILES: Cc1cccc(C)c1NC(=O)c1cnc(Nc2ccc(N3CCN(C)CC3)c(Cl)c2)nc1NC1CCC1

The remaining lines, values behind:

SMILES: Cc1cccc(C)c1NC(=O)c1cnc(Nc2ccc(N3CCNCC3)cc2)nc1NC1CCC1
half-life [1]: 33 min

SMILES: Cc1cccc(C)c1NC(=O)c1cnc(Nc2ccc(CN3CCOCC3)cc2)nc1NC1CCC1
half-life [1]: 6.5 min

SMILES: Cc1cccc(Br)c1NC(=O)c1cnc(Nc2ccc(N3CCN(C)CC3)cc2)nc1NC1CCC1
half-life [1]: 21.5 min
Activity [2]: 52%
Activity [3]: 66%

SMILES: COc1cccc(C)c1NC(=O)c1cnc(Nc2ccc(N3CCN(C)CC3)cc2)nc1NC1CCC1
half-life [1]: 31.9 min
Activity [2]: 107%
Activity [3]: 93%

SMILES: COc1ccc(N2C(=O)N(c3c(C)cccc3Cl)Cc3cnc(Nc4ccc(N5CCN(C)CC5)cc4)nc32)nc1
half-life [4]: 27 min

SMILES: COc1ccc(N2C(=O)N(c3c(C)cccc3Cl)Cc3cnc(Nc4ccc(C5CCN(C)CC5)cc4OC)nc32)nc1
half-life [4]: > 120 min
fraction unbound [5]: > 0.06

SMILES: COc1ccc(Nc2nc(Nc3ccc(N4CCN(C)CC4)cc3)ncc2C(=O)Nc2c(C)cccc2C)c(OC)c1
half-life [1]: > 120 min

SMILES: CNc1nc(Nc2ccc(N3CCN(C)CC3)cc2)ncc1C(=O)Nc1c(C)cccc1C
half-life [1]: 17.5 min

SMILES: Cc1cccc(C)c1NC(=O)c1cnc(Nc2ccc(N3CCN(C)CC3)cc2)nc1NC(C)C
half-life [1]: 24.3 min

SMILES: COc1ccc(N(C(=O)Nc2c(C)cccc2C)c2cc(Nc3ccc(N4CCN(C)CC4)cc3)ncn2)c(OC)c1
CL/F [6]: 223 mL/min/kg
fraction unbound at 8 h, 10 µM [7]: < 0.01
Cmax [8]: 1290 ng/mL
half-life [1]: 14.4 min
half-life [9]: 210 min
half-life [4]: 11 min
Tmax [10]: 6 min
half-life [11]: 150 min
AUC(0-t) at 24 h [12]: 522 ng·h/mL
clearance [13]: 76.7 mL/min/kg
bioavailability [14]: 47.2%
Activity [15]: Non-Toxic
Activity [16]: Active
Cmax [17]: 149 ng/mL
Activity [18]: Active
Activity [19]: Active
Tmax [20]: 78 min
AUC(0-t) at 24 h [21]: 1110 ng·h/mL
Activity [22]: inactive

SMILES: CN1CCN(c2ccc(Nc3ncc(C(=O)Nc4c(F)cccc4F)c(NC4CCC4)n3)cc2)CC1
half-life [1]: 49.5 min
Activity [2]: 10%
Activity [3]: 93%
Activity [23]: 12%

SMILES: CN1CCN(c2ccc(Nc3ncc(C(=O)Nc4ccccc4F)c(NC4CCC4)n3)cc2)CC1
half-life [1]: 45.6 min
Activity [2]: 22%
Activity [3]: 100%
Activity [23]: 124%
